Test results from patent publication US5614521A, “Benzene derivatives having NGF production-promoting activity” (Sankyo Company, Limited, priority 1991, dated 1997).

system: L-M cells; test: NGF production and secretion by mouse L-M cells (NGF promoter activity), NGF level by enzyme immunoassay; format: cell-based; settings: 24 h, read-out: % Control (NGF produced and secreted relative to cells not treated with the test compounds)
Text: Furukawa et al. have reported that fibroblast-forming L-M cells from mouse connective tissue can produce and secrete a relatively large amount of NGF, and that catecholamines accelerate such production and secretion of NGF (J. Biol. Chem., 261, 6039-6047, 1986). […] The test compounds of this invention were employed at 10 γ/ml, and the known compounds were employed at 20 γ/ml.
Culture medium 199 containing 0.5% peptone was used for culturing L-M cells (for the culture medium 199, see, for instance, Morgan et al., proc. Soc. Exp. Biol. Med., 73, 1 (1950) or Morgan et al. J. Natl. Cancer Inst., 16, 557 (1955). About […] of L-M cells were placed in each well of a culture plate with 24 wells, and cultured using a CO2 incubator (37° C., 5% CO2) until confluence. After removing the culture medium, the cultured cells were washed once with a wash solution which was 199 culture medium containing 0.5% bovine serum albumin (Fraction V, Sigma). The test compounds were added to a specified concentration to a 199 culture medium containing 0.5% bovine serum albumin, and used to treat 0.5 ml of L-M cells. After culturing the L-M cells in a CO2 incubator for 24 hours, the medium was recovered and the NGF level was determined.
NGF was quantitatively determined using an enzyme immunoassay [Korshing, Thoenen, et al. Proc. Natl. Acad. Sci. USA, 80, 3513-3516, (1983)]. 75 μl of a solution of anti-mouse β-NGF antibody (0.3 μg/ml, pH 9.6; Boehringer Mannheim) was piperted into each well of a polystyrene plate with 96 wells. After allowing the plate to stand at room temperature for an hour, the antibody was removed by washing three times with the wash solution. 50 μl of a solution of standard β-NGF (Wako Pure Chemical Industries Ltd.) or of the recovered medium was piperted into the wells. After allowing the plate to stand for […] at room temperature,the standard β-NGF or test solution was removed and each well was washed three times. 50 μl of a solution of β-NGF monoclonal antibody (100 mU/ml, pH 7.0; BoehringerMannheim) labelled with β-galactosidase was piperted into each well. After allowing the plate to stand at 4° C. for 15-18 hours, enzyme labelled antibody was removed and the wells washed three times followed by pipetting 100 μl of a solution of chlorophenol red-β-D-galactopyranoside (1 mg/ml, pH 7.3; BoehringerMannheim) into each well. Color was allowed to develop (after 2-3 hours at room temperature), and the absorbance was determined at 570 nm.
The amount of NGF was calculated from a standard curve. The results are expressed as a relative value (%) which is relative to the amount of NGF produced and secreted by cells treated not with the test compounds. The numerical values (% Control) are expressed by the mean value in the 3 wells of the control (without addition of the test compounds).

Q: `CNC[C@H](O)c1ccc(O)c(O)c1` [epinephrine, reference compound] was tested. Which activity at 20 µg/mL did it give?
A: 140 ± 24%

same assay, conditions: known compounds at 20 γ/ml, L-M cells, 24 hours, 37° C., read-out: % Control (NGF produced and secreted relative to cells not treated with the test compounds)

Q: With `CC(C)NCC(O)c1ccc(O)c(O)c1` (stereo not drawn) [isoproterenol, reference compound] as the molecule, how does the activity at 20 µg/mL read?
A: 168 ± 22%

Q: `N[C@@H](Cc1ccc(O)c(O)c1)C(=O)O` [L-DOPA, reference compound] was tested. Which activity at 20 µg/mL did it give?
A: 117 ± 7%

Q: Which activity at 20 µg/mL does the source give for `O=C(O)/C=C/c1ccc(O)c(O)c1` [caffeic Acid, reference compound] here?
A: 123 ± 14%

same assay, conditions: test compounds of this invention at 10 γ/ml, L-M cells, 24 hours, 37° C., read-out: % Control (NGF produced and secreted relative to cells not treated with the test compounds)

Q: How did the activity at 10 µg/mL turn out when `Nc1ccc(CCC(=O)NC23CC4CC(CC(C4)C2)C3)cc1N` [Example 22, N-(1-Adamantyl)-3-(3,4-diaminophenyl)propionamide] was run?
A: 380%

Q: `Nc1ccc(CCC(=O)N(c2ccccc2)c2ccccc2)cc1N` [Example 40, N,N-Diphenyl-3-(3,4-diaminophenyl) propionamide] was tested. Which activity at 10 µg/mL did it give?
A: 276%

Q: Which activity at 10 µg/mL does the source give for `Nc1ccc(CCC(=O)Nc2ccc(C(=O)c3ccccc3)cc2)cc1N` [Example 43, N-(4-Benzoylphenyl)-3-(3,4-diaminophenyl)propionamide] here?
A: 491%

Q: How did the activity at 10 µg/mL turn out when `Nc1ccc(CCC(=O)Nc2cnc3ccccc3c2)cc1N` [Example 34, N-(3-Quinolyl)-3-(3,4-diaminophenyl)propiomide] was run?
A: 606%

Q: Which activity at 10 µg/mL does the source give for `Nc1cc(CCC(=O)NC2CCc3ccccc32)ccc1O` (stereo not drawn) [Example 53, N-(1-Indanyl)-3-(4-hydroxy-3-aminophenyl)propionamide] here?
A: 315%
